Results on 41 molecules are retold here after patent US11001590B2, “Pyrazolopyrimidine derivatives” (BAYER ANIMAL HEALTH GMBH, priority 2016, dated 2021).

One series addresses C. elegans Slo-1a (Caenorhabditis elegans, UniProt Q95V25). In words: In vitro assay 1: C. elegans Slo-1a, action at a recombinant C. elegans CHO cell line (membrane potential measurement).
Series [1] is described as follows: log P by HPLC on reversed phase columns (Method L0; [a] acidic, [b] neutral range).
Description: Calibration was done with straight-chain alkan-2-ones (with 3 to 16 carbon atoms) with known log P values (measurement of log P values using retention times with linear interpolation between successive alkanones). Lambda-max-values were determined using UV-spectra from 200 nm to 400 nm and the peak values of the chromatographic signals.
For series [2], the system named is Dirofilaria immitis microfilariae. In words: In vitro assay 3: Dirofilaria immitis microfilariae (DIROIM L1), motility. The following applies: 72 h, reduction of motility vs negative control, 72 h incubation.

C. elegans Slo-1a, sequence (Q95V25 whole entry): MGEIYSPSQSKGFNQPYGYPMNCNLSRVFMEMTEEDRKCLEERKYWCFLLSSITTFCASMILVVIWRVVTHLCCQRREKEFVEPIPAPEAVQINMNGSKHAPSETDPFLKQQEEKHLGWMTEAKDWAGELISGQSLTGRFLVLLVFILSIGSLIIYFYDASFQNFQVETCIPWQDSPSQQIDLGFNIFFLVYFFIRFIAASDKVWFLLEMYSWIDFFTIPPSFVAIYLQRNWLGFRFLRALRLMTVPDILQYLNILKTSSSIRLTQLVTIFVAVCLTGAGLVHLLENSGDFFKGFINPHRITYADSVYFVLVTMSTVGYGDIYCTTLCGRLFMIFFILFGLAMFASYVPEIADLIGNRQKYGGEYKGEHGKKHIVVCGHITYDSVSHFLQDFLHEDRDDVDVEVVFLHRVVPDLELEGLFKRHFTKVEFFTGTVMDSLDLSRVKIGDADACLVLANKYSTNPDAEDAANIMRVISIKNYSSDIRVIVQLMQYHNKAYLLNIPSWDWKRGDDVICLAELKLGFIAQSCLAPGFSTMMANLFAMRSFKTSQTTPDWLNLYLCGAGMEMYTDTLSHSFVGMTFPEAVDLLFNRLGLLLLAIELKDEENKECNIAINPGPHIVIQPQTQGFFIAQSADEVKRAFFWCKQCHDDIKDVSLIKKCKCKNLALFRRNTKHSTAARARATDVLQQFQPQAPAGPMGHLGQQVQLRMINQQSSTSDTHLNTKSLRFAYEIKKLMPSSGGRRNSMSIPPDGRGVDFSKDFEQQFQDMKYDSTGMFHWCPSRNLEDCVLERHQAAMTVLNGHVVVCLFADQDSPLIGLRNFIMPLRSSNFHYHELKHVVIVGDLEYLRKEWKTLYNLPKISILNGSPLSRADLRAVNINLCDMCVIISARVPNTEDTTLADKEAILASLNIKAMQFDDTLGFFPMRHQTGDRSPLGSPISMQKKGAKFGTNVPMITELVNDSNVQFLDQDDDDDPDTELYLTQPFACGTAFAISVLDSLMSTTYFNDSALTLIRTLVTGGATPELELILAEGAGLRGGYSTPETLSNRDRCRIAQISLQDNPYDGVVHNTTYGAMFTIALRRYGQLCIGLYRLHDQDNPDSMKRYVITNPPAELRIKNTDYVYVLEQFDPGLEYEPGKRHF

On to `Cc1nn2c(N(C)C)c(C(=O)N[C@H]3CCOc4ccccc43)cnc2c1-c1cc(Cl)cc(Cl)c1` [Example 520], for which the EC50 is 7.94 nM at C. elegans Slo-1a and less than 0.1 µg/mL in series [2]. Besides, the chromatographic logP in series [1] came out at 4.92.
On the same counts, the results for `CC(C)c1c(C(=O)N[C@H]2CCCc3ccccc32)cnc2c(-c3ccccc3Cl)c(Cl)nn12` [Example 78] are 31.6 nM, less than 0.1 µg/mL and 5.07.
The matching figures for `CC(C)c1c(C(=O)N[C@H]2CCc3ccccc32)cnc2c(-c3cccc(C(F)(F)F)c3)c(C(F)F)nn12` [Example 433]: 10 nM, less than 10 µg/mL and 5.03.
The matching figures for `COCc1cccc(-c2c(C(F)(F)F)nn3c(C(C)C)c(C(=O)N[C@H]4CCOc5ccccc54)cnc23)c1` [Example 142]: 79.4 nM, less than 10 µg/mL and 4.6.
Turning to `COc1cccc(-c2c(C(F)F)nn3c(C(C)C)c(C(=O)N[C@H]4CCc5ccccc54)cnc23)c1` [Example 428], the EC50 at C. elegans Slo-1a was 25.1 nM; in series [2], less than 0.1 µg/mL. Also, the chromatographic logP in series [1] came out at 4.42.
Take `CC(C)c1c(C(=O)N[C@H]2CCc3ccccc32)cnc2c(-c3cccc(F)c3)c(C(F)(F)F)nn12` [Example 157]: the concentration giving a half-maximal response (EC50) was 100 nM at C. elegans Slo-1a and less than 10 µg/mL in series [2]. For the same molecule, the chromatographic logP in series [1] came to 5.02.
The matching figures for `CCS(=O)(=O)c1nn2c(C(C)C)c(C(=O)N[C@H]3CCc4ccccc43)cnc2c1-c1cc(Cl)cc(Cl)c1` [Example 211]: 1260 nM, less than 10 µg/mL and 4.62.
In the case of `Cc1nn2c(C(C)C)c(C(=O)N[C@H]3CCOc4ccccc43)cnc2c1-c1ccc2c(c1F)OCO2` [Example 245], the half-maximal effective concentration (EC50) on C. elegans Slo-1a is 20 nM; in series [2] it was less than 1 µg/mL. In series [1], the chromatographic logP came out at 4.18.
In the case of `COc1cccc(-c2c(C)nn3c(C4CC4)c(C(=O)N[C@H]4CCOc5ccccc54)cnc23)c1` [Example 454], the EC50 on C. elegans Slo-1a is 3.98 nM; in series [2] it was less than 0.1 µg/mL. Also, in series [1], the chromatographic logP is 3.5.
On the same counts, the results for `Cc1nn2c(C(C)C)c(C(=O)N[C@H]3CCc4ccccc43)cnc2c1-c1cccc(COCC2CC2)c1` [Example 389] are 251 nM, less than 10 µg/mL and 5.24.
Regarding `Cc1nn2c(C(C)C)c(C(=O)N[C@H]3CCc4ccccc43)cnc2c1-c1cccc(OCC#N)c1` [Example 320], the EC50 on C. elegans Slo-1a was 50.1 nM; in series [2], less than 10 µg/mL. Further, in series [1], the chromatographic logP was 4.09.
With `Cc1nn2c(C(C)C)c(C(=O)N[C@H]3CCOc4ccccc43)cnc2c1-c1cccc(Br)c1` [Example 204], the EC50 was 15.8 nM at C. elegans Slo-1a and less than 0.1 µg/mL in series [2]. The chromatographic logP in series [1] came to 5.02.
On the same counts, the results for `Cc1nn2c(C(C)C)c(C(=O)N[C@H]3CCCc4ccccc43)cnc2c1-c1cc(Cl)c(Cl)c(Cl)c1` [Example 125] are 25.1 nM, less than 1 µg/mL and 6.86.
The matching figures for `Cc1nn2c(C3CC3)c(C(=O)N[C@H]3CCOc4ccccc43)cnc2c1-c1cc(Cl)cc(Cl)c1` [Example 469]: 15.8 nM, less than 0.1 µg/mL and 4.96.
On the same counts, the results for `Cc1nn2c(C(C)C)c(C(=O)N[C@H]3CCCc4ccccc43)cnc2c1-c1ccc2c(c1)OC(F)(F)O2` [Example 148] are 39.8 nM, less than 10 µg/mL and 5.59.
For the molecule `Cc1nn2c(C(C)C)c(C(=O)N[C@H]3CCOc4ccccc43)cnc2c1-c1cc(O)c(F)c(F)c1` [Example 259], the EC50 was 15.8 nM at C. elegans Slo-1a and less than 1 µg/mL in series [2]. This molecule also yielded a chromatographic logP in series [1] of 3.61.
The matching figures for `CC(C)c1c(C(=O)N[C@H]2CCc3ccccc32)cnc2c(-c3ccccc3F)c(C(F)(F)F)nn12` [Example 158]: 158 nM, less than 10 µg/mL and 4.76.
The matching figures for `COCc1ccc(-c2c(C)nn3c(C(C)C)c(C(=O)N[C@H]4CCc5ccccc54)cnc23)cc1` [Example 340]: 39.8 nM, less than 1 µg/mL and 4.41.
Regarding `CC(C)c1c(C(=O)N[C@H]2CCc3ccccc32)cnc2c(-c3cccc(F)c3)c(C(F)F)nn12` [Example 429], the EC50 was 39.8 nM at C. elegans Slo-1a and less than 10 µg/mL in series [2]. The chromatographic logP in series [1] stood at 4.57.
The matching figures for `Cc1nn2c(C(C)C)c(C(=O)N[C@H]3CCCc4ccccc43)cnc2c1-c1ccccc1` [Example 175]: 63.1 nM, less than 10 µg/mL and 4.94.
The matching figures for `Cc1nn2c(C(C)C)c(C(=O)N[C@H]3CCOc4ccccc43)cnc2c1-c1cnccc1Cl` [Example 231]: 15.8 nM, less than 1 µg/mL and 3.9.
On the same counts, the results for `Cc1nn2c(C3CC3)c(C(=O)N[C@H]3CCc4ccccc43)cnc2c1-c1cc(Cl)cc(C(F)(F)F)c1` [Example 425] are 79.4 nM, less than 10 µg/mL and 5.34.
Regarding `Cc1nn2c(C(C)C)c(C(=O)N[C@H]3CCOc4ccccc43)cnc2c1-c1cccc2c1OCO2` [Example 266], the EC50 at C. elegans Slo-1a is 2 nM; in series [2], less than 1 µg/mL. This molecule also came in with a chromatographic logP in series [1] of 4.02.
On the same counts, the results for `COc1cccc(-c2c(C)nn3c(C(C)C)c(C(=O)N[C@H]4CCCc5ccccc54)cnc23)c1` [Example 346] are 12.6 nM, less than 0.1 µg/mL and 4.82.
In the case of `COc1cc(-c2c(C)nn3c(C4CC4)c(C(=O)N[C@H]4CCc5ccccc54)cnc23)cc(C(F)(F)F)c1` [Example 423], the EC50 at C. elegans Slo-1a is 63.1 nM; in series [2], less than 10 µg/mL. The chromatographic logP in series [1] was determined as 4.7.
The matching figures for `CC(C)c1c(C(=O)N[C@H]2CCOc3ccccc32)cnc2c(-c3cc(Cl)cc(C(F)(F)F)c3)c(C(F)(F)F)nn12` [Example 143]: 12.6 nM, less than 10 µg/mL and 5.78.
On the same counts, the results for `Cc1nn2c(C(C)C)c(C(=O)N[C@H]3CCc4ccccc43)cnc2c1-c1c(Cl)cccc1Cl` [Example 223] are 12.6 nM, less than 1 µg/mL and 4.87.
On the same counts, the results for `Cc1nn2c(C3CC3)c(C(=O)N[C@H]3CCOc4ccccc43)cnc2c1-c1cccc(OC(F)(F)F)c1` [Example 462] are 6.31 nM, less than 0.1 µg/mL and 4.47.
Turning to `CCOCc1cccc(-c2c(C)nn3c(C(C)C)c(C(=O)N[C@H]4CCc5ccccc54)cnc23)c1` [Example 370], the EC50 was 15.8 nM on C. elegans Slo-1a and less than 1 µg/mL in series [2]. For the same molecule, the chromatographic logP in series [1] came to 4.86.
The matching figures for `Cc1nn2c(C(C)C)c(C(=O)N[C@H]3CCCc4ccccc43)cnc2c1-c1ccc(Cl)cc1Cl` [Example 182]: 12.6 nM, less than 1 µg/mL and 5.59.
On the same counts, the results for `Cc1nn2c(C(C)C)c(C(=O)N[C@H]3CCc4ccccc43)cnc2c1-n1cc(Cl)cn1` [Example 447] are 398 nM, less than 10 µg/mL and 4.13.
The matching figures for `Cc1nn2c(C(C)C)c(C(=O)N[C@H]3CCOc4ccccc43)cnc2c1-c1cccc(Cl)n1` [Example 195]: 158 nM, less than 10 µg/mL and 4.85.
Take `Cc1nn2c(C(C)C)c(C(=O)N[C@H]3CCc4ccccc43)cnc2c1-c1ccc(C(F)F)cc1` [Example 334]: the EC50 on C. elegans Slo-1a was 25.1 nM; in series [2] it was less than 10 µg/mL. Moreover, the chromatographic logP in series [1] stood at 4.63.
The matching figures for `Cc1nn2c(C3CC3)c(C(=O)N[C@H]3CCc4ccccc43)cnc2c1-c1cccc(OC(F)(F)F)c1` [Example 360]: 12.6 nM, less than 1 µg/mL and 4.72.
On the same counts, the results for `Cc1nn2c(C(C)C)c(C(=O)N[C@H]3CCOc4ccccc43)cnc2c1-c1ccccc1` [Example 176] are 12.6 nM, less than 0.1 µg/mL and 4.28.
On the same counts, the results for `COc1cccc(-c2c(C3CC3)nn3c(C(C)C)c(C(=O)N[C@H]4CCc5ccccc54)cnc23)c1` [Example 408] are 316 nM, less than 10 µg/mL and 5.19.
Turning to `Cc1nn2c(C(C)C)c(C(=O)N[C@H]3CCc4ccccc43)cnc2c1-c1cccc(Cl)n1` [Example 183], the values for the EC50 (at C. elegans Slo-1a; in series [2]) were 398 nM and less than 10 µg/mL, respectively. For the same molecule, the chromatographic logP in series [1] was 5.1.
The matching figures for `Cc1nn2c(C(C)C)c(C(=O)N[C@H]3CCc4ccccc43)cnc2c1-c1cccc(COCC(F)(F)F)c1` [Example 367]: 158 nM, less than 10 µg/mL and 4.99.
On the same counts, the results for `COCc1cccc(-c2c(C(F)(F)F)nn3c(C(C)C)c(C(=O)N[C@H]4CCc5ccccc54)cnc23)c1` [Example 144] are 158 nM, less than 10 µg/mL and 4.87.
As to `Cc1nn2c(C3CC3)c(C(=O)N[C@H]3CCOc4ccccc43)cnc2c1-c1ccc(Cl)nc1` [Example 525], the EC50 is 79.4 nM at C. elegans Slo-1a and less than 10 µg/mL in series [2]. The same molecule gave a chromatographic logP in series [1] of 2.96.
The matching figures for `Cc1nn2c(C(C)C)c(C(=O)N[C@H]3CCCc4ccccc43)cnc2c1-c1cncc(Cl)c1` [Example 362]: 100 nM, less than 10 µg/mL and 4.52.
